Test systems include COLO 205; SNB-75; SF-268; UACC-62; MOLT-4; CCRF-CEM; Malme-3M; TK-10; HOP-92; A549; SK-MEL-28; HCT-15; OVCAR-5; SF-295; IGROV-1; SW-620; EKVX; NCI-H522; K562; UO-31.
Experiment in all cases: NCI tumour cell line growth inhibition, 48 h

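How tested: cells in 96-well plates exposed to compound for 48 hours at five concentrations. The concentration for 50% growth inhibition is given as GI50.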 The source made the active and inactive calls. Cut-off read from the data, not from the text of the source: active = GI50 up to about 1.1 µM and inactive = higher.

As to `CN(CCO)/N=N/c1[nH]cnc1C(N)=O`, the GI50 was > 100 µM (inactive) with COLO 205; 26.8 µM (inactive) in the assay with SNB-75; 84.1 µM (inactive) with SF-268; 83.8 µM (inactive) in the assay on UACC-62; > 100 µM (inactive) in the assay on MOLT-4; 21.5 µM (inactive) in the assay with CCRF-CEM. Besides, the GI50 with Malme-3M was 52.8 µM (inactive); in the assay with TK-10 it was 49.2 µM (inactive); with HOP-92, 77.8 µM (inactive); in the assay with A549, > 100 µM (inactive); in the assay on SK-MEL-28, > 100 µM (inactive); in the assay with HCT-15, more than 100 µM. The GI50 is > 100 µM (inactive) with OVCAR-5; 77.8 µM (inactive) in the assay on SF-295; > 100 µM (inactive) with IGROV-1; 69.3 µM (inactive) with SW-620; > 100 µM (inactive) in the assay with EKVX; > 100 µM (inactive) with NCI-H522.

With `CC(=O)Nc1ccc(Sc2nnc(NC(C)=O)s2)cc1`, the GI50 with COLO 205, in the assay on SNB-75, in the assay with SF-268, in the assay with MOLT-4, with CCRF-CEM and in the assay on K562 was > 100 µM (inactive) in each case. Besides, the GI50 in the assay with TK-10 was > 100 µM (inactive); in the assay on A549, > 100 µM (inactive); in the assay on SK-MEL-28, > 100 µM (inactive); with HCT-15, more than 100 µM; with OVCAR-5 it was > 100 µM (inactive); in the assay on SF-295, > 100 µM (inactive). In addition, the GI50 in the assay with IGROV-1, with SW-620, in the assay on EKVX, with UO-31 and in the assay with NCI-H522 was > 100 µM (inactive) each time.

Turning to `CN(C)CCCNC(=O)N/N=C\c1cccc2ccccc12`, the GI50 with COLO 205, in the assay with SNB-75, with SF-268, with UACC-62, with MOLT-4 and in the assay with CCRF-CEM was > 10 µM (inactive) throughout. Besides, the GI50 in the assay on Malme-3M, in the assay with K562, with TK-10, in the assay with HOP-92, in the assay on A549 and in the assay on SK-MEL-28 was > 10 µM (inactive) throughout. Further, the GI50 with HCT-15 was more than 10 µM; in the assay with OVCAR-5, > 10 µM (inactive); with SF-295 it was > 10 µM (inactive); in the assay with IGROV-1, > 10 µM (inactive); with SW-620, > 10 µM (inactive); in the assay with EKVX, > 10 µM (inactive). The GI50 with UO-31 was 4.45 µM (inactive); with NCI-H522, > 10 µM (inactive).

In the case of `COc1cc(C2c3cc4c(cc3[C@@H](Nc3ccccc3)C3COC(=O)[C@H]23)OCO4)cc(OC)c1O` (some centres undefined), the GI50 in the assay with COLO 205 was 1.92 µM (inactive); in the assay on SNB-75, 0.875 µM (active); with SF-268, 1.04 µM (active); with UACC-62, 0.388 µM (active); in the assay with MOLT-4, < 0.01 µM (active); in the assay on CCRF-CEM it was 0.0279 µM (active). Moreover, the GI50 with Malme-3M is 1.41 µM (inactive); in the assay on K562, 0.931 µM (active); with HOP-92 it was 0.857 µM (active); with A549, 0.0156 µM (active); with SK-MEL-28 it was 2.72 µM (inactive); in the assay on HCT-15 it was 0.417 µM. Besides, the GI50 with OVCAR-5 was 1.86 µM (inactive); in the assay on SF-295, 0.171 µM (active); in the assay with IGROV-1 it was 2.21 µM (inactive); in the assay on SW-620, 0.792 µM (active); in the assay with EKVX, 1.96 µM (inactive); in the assay on UO-31 it was 0.531 µM (active). In addition, the GI50 in the assay on NCI-H522 was 1.24 µM (inactive).

In the case of `N#CCCN(CCC#N)c1ccc(/C=C(/NC(=O)Nc2ccccc2Cl)NC(=O)c2cc([N+](=O)[O-])ccc2Cl)cc1`, the GI50 with COLO 205 was > 100 µM (inactive); with SF-268, > 100 µM (inactive); in the assay with UACC-62 it was 57.8 µM (inactive); in the assay on MOLT-4 it was 42 µM (inactive); in the assay on CCRF-CEM, 17.3 µM (inactive); with Malme-3M, > 100 µM (inactive). The GI50 is 64.6 µM (inactive) in the assay with K562; > 100 µM (inactive) with TK-10; > 100 µM (inactive) in the assay on HOP-92; > 100 µM (inactive) in the assay with A549; > 100 µM (inactive) in the assay on SK-MEL-28; more than 100 µM in the assay with HCT-15. In addition, the GI50 was > 100 µM (inactive) in the assay with OVCAR-5; > 100 µM (inactive) in the assay with SF-295; > 100 µM (inactive) in the assay on IGROV-1; > 100 µM (inactive) in the assay on SW-620; > 100 µM (inactive) with EKVX; 55.7 µM (inactive) in the assay on UO-31. Moreover, the GI50 in the assay with NCI-H522 is 44.1 µM (inactive).

Regarding `C=C(C)C1Cc2c(c3ccccc3n(C)c2=O)O1` (centres undefined), the GI50 in the assay on COLO 205, with SNB-75, with SF-268, with UACC-62, with MOLT-4 and in the assay with CCRF-CEM was > 100 µM (inactive) throughout. In addition, the GI50 was > 100 µM (inactive) with Malme-3M; > 100 µM (inactive) in the assay with K562; > 100 µM (inactive) with TK-10; 93.3 µM (inactive) with HOP-92; > 100 µM (inactive) in the assay on SK-MEL-28; more than 100 µM in the assay with HCT-15. In addition, the GI50 with SF-295, in the assay on IGROV-1, in the assay on SW-620, with EKVX, in the assay on UO-31 and with NCI-H522 was > 100 µM (inactive) each time.

`Brc1ccc2c(c1)[C@H]1CCc3c([nH]c4ccccc34)[C@H]1N2`: the GI50 with COLO 205 is 11.5 µM (inactive); in the assay with SNB-75, 21.3 µM (inactive); with SF-268 it was 15.1 µM (inactive); in the assay with UACC-62 it was 11.5 µM (inactive); with MOLT-4 it was 2.2 µM (inactive); in the assay with CCRF-CEM it was 3.91 µM (inactive). The GI50 in the assay with Malme-3M was 10.7 µM (inactive); in the assay on K562, 4.85 µM (inactive); in the assay with TK-10, 11.2 µM (inactive); with HOP-92, 13.3 µM (inactive); with A549 it was 14.8 µM (inactive); in the assay on SK-MEL-28, 14 µM (inactive). For the same molecule, the GI50 was 11.7 µM (inactive) in the assay with OVCAR-5; 11.6 µM (inactive) in the assay with SF-295; 0.369 µM (active) in the assay with IGROV-1; 14.4 µM (inactive) in the assay with SW-620; 10.8 µM (inactive) with EKVX; 11.4 µM (inactive) with UO-31.

Source of the values: ChEMBL document CHEMBL1201862, “PubChem BioAssay data set” (2004).
